Measurements: PMC5889410, “Design and Biological Evaluation of Antifouling Dihydrostilbene Oxime Hybrids” (Marine Biotechnology (New York, N.y.), 2018)
Values after ≈ are worked out from the molar mass of the structure shown.

Assays:
[1] = test system: Balanus improvisus cyprid larvae; settings: B. improvisus larvae settlement; ref Ortlepp et al. [2007]; cited from earlier work
[2] = test system: blue mussel phenoloxidase; set-up: method as in Bayer et al. [2011]; settings: ref Bayer et al. [2011]; cited from earlier work
Vibrio aestuarianus [3] = assay: Bacterial adhesion assay (crystal violet, OD 595 nm); assay type: cell-based; settings: 48 h, read-out: MIC against the adhesion of marine bacteria, V.a.
Description: (§1) Cyprid larvae of B. improvisus were reared in a laboratory cultivating system at Tjärnö Marine Biological Laboratory, University of Gothenburg, Sweden, as previously described by Berntsson et al. ([2000]). Four pure, but non-axenic, marine microalgae (obtained from Algobank, Caen, France) and 10 marine bacterial strains were used (Table 1) as representative microfoulers. These strains represent fouling species encountered in both estuarine and marine environments (Moodie et al. [2017b]). The bacteria were grown at 26 °C in a marine medium, composed of 0.5% peptone (neutralized bacteriological peptone, Oxoid Ltd.) in filtered (Whatman 1001–270, pore size 11 μm) natural seawater. Microalgae were grown and maintained at 22 °C in F/2 medium.
(§2) Bacterial strain adhesion and growth were determined according to the methods of Thabard et al. ([2011]). Bacterial suspensions (100-μL aliquots, 2 × 10^8 colony forming units/mL) were aseptically added to the compound containing microplate wells (10–0.01 μg/mL), and the plates were incubated for 48 h at 26 °C. Media only was used as a blank. Bacterial growth was monitored spectroscopically at 630 nm. The minimal inhibitory concentration (MIC) for bacterial growth was defined as the lowest concentration which results in a decrease in OD. After 48-h incubation time, the bacterial adhesion assay was conducted by emptying the wells and rinsing with sterile seawater (100 μL) to remove non-attached cells, and air-drying at room temperature. The residual bacterial biofilm was stained with aqueous crystal violet (100 μL, 0.3% v/v) and the OD measured at 595 nm (Sonak and Bhosle [1995]). […] If inhibition was observed, toxicity tests were conducted. The well contents were transferred into a flask of fresh media, and growth was measured after 5 days of additional incubation. The mode of action was deemed biostatic if an increase in OD was measured at 595 nm (Moodie et al. [2017a]).

Halomonas aquamarina [4] = assay: as above; assay type: cell-based; settings: Vreelandella aquamarina, 48 h incubation, 10–0.01 μg/mL tested, read-out: MIC against the adhesion of marine bacteria, H.a.
Description: as §1, §2

Vibrio carchariae [5] = assay: as above; assay type: cell-based; settings: Vibrio harveyi, 48 h, read-out: MIC against the adhesion of marine bacteria, V.c.
Description: as §1, §2

Vibrio harveyi [6] = assay: as above; assay type: cell-based; settings: 48 h, read-out: MIC against the adhesion of marine bacteria, V.h.
Description: as §1, §2

marine bacteria = assay: Bacterial adhesion assay, whole panel of ten strains; assay type: cell-based, 10 marine bacterial strains; settings: tested up to 10 μg/mL, active = MIC of 10 μg/mL or below
Description: as §1, §2

Vibrio aestuarianus [7] = assay: Bacterial growth assay (OD 630 nm); assay type: cell-based; settings: 48 h incubation, 10–0.01 μg/mL tested, read-out: MIC against the growth of marine bacteria, V.a.
Description: as §1, §2

Vibrio natriegens = assay: Bacterial growth assay (OD 630 nm); assay type: cell-based; settings: 48 h incubation, 10–0.01 μg/mL tested, read-out: MIC against the growth of marine bacteria, V.n.
Description: as §1, §2

Halomonas aquamarina [8] = assay: Bacterial growth assay (OD 630 nm); assay type: cell-based; settings: Vreelandella aquamarina, 48 h incubation, 10–0.01 μg/mL tested, read-out: MIC against the growth of marine bacteria, H.a.
Description: as §1, §2

Vibrio proteolyticus = assay: Bacterial growth assay (OD 630 nm); assay type: cell-based; settings: 48 h incubation, 10–0.01 μg/mL tested, read-out: MIC against the growth of marine bacteria, V.p.
Description: as §1, §2

Shewanella putrefaciens = assay: Bacterial growth assay (OD 630 nm); assay type: cell-based; settings: 48 h incubation, 10–0.01 μg/mL tested, read-out: MIC against the growth of marine bacteria, S.p.
Description: as §1, §2

[9] = test system: Pseudoalteromonas elyakovii; assay: Bacterial growth assay (OD 630 nm); assay type: cell-based; settings: 48 h incubation, 10–0.01 μg/mL tested, read-out: MIC against the growth of marine bacteria, P.e.
Description: as §1, §2

Vibrio carchariae [10] = assay: Bacterial growth assay (OD 630 nm); assay type: cell-based; settings: Vibrio harveyi, 48 h incubation, 10–0.01 μg/mL tested, read-out: MIC against the growth of marine bacteria, V.c.
Description: as §1, §2

Roseobacter litoralis = assay: Bacterial growth assay (OD 630 nm); assay type: cell-based; settings: 48 h incubation, 10–0.01 μg/mL tested, read-out: MIC against the growth of marine bacteria, R.l.
Description: as §1, §2

Vibrio harveyi [11] = assay: Bacterial growth assay (OD 630 nm); assay type: cell-based; settings: 48 h incubation, 10–0.01 μg/mL tested, read-out: MIC against the growth of marine bacteria, V.h.
Description: as §1, §2

[12] = test system: Balanus improvisus cyprid larvae; assay: whole plant or invertebrate; assay type: in vivo
Description: as §1
Stock solutions of compounds in DMSO were serially diluted in untreated polystyrene Petri dishes containing 10 mL of filtered (0.2 μm) seawater, affording final concentrations ranging from 0.1 to 10 μg/mL. Freshly molted balanide cyprids (18–22) were added to each Petri dish and incubated at ambient temperature (20–25 °C) for 5 days. Cyprid metamorphosis was assessed using a dissecting microscope where the numbers of juvenile settled, free-swimming, and dead cyprids were noted. Initial compound screening was conducted at 5 μg/mL, and full IC50 determination was performed only on compounds displaying > 50% inhibition at that concentration. The IC50 was defined as the concentration preventing 50% of the cyprid settlement on the Petri dish surface. Each concentration was replicated four times (n = 4), and dishes containing 0.1% of DMSO were used as negative controls. The commercial AF agent Sea-nine™ was employed as a positive control.

[13] = test system: Pleurochrysis roscoffensis; assay: Microalgal growth assay (chlorophyll a); assay type: cell-based; settings: Chrysotila roscoffensis, 120 h, 5 days incubation, 10–0.01 μg/mL tested, read-out: MIC against the growth (G) of microalgae, P. roscoffensis
Description: as §1
(§3) Microplates containing the compounds in ranging concentrations (10–0.01 μg/mL) were prepared from MeOH stock solutions as previously described (Trepos et al. [2014]; Moodie et al. [2017a]). Microalgal stock solutions were prepared using the chlorophyll analysis methodology of Chambers et al. ([2011]). The pretreated microplate wells were treated with 100 μL of the algal stock solutions (0.1 mg chlorophyll a/mL). The plates were then incubated for 5 days at 20 °C under constant light exposure (140 μmol m^−2 s^−1). Both microalgal adhesion and growth inhibition were measured. Growth was determined by analysis of liberated chlorophyll a after centrifugation and methanol addition. Chlorophyll a was quantified fluorometrically. MIC value for algal growth was defined as the lowest concentration yielding a decrease in chlorophyll a content. Microalgal adhesion was determined in an analogous manner where the non-attached algal cells were removed prior to methanol addition (100 μL), releasing chlorophyll a from the remaining algal biofilms. The MIC for adhesion was defined as the lowest compound concentration causing a reduction in […]. Toxicity experiments were performed in an analogous manner to those described for the bacterial assays.

Porphyridium purpureum = assay: Microalgal growth assay (chlorophyll a); assay type: cell-based; settings: 120 h, 5 days incubation, 10–0.01 μg/mL tested, read-out: MIC against the growth (G) of microalgae, P. purpureum
Description: as §1, §3

Cylindrotheca closterium = assay: Microalgal growth assay (chlorophyll a); assay type: cell-based; settings: 120 h, 5 days incubation, 10–0.01 μg/mL tested, read-out: MIC against the growth (G) of microalgae, C. closterium
Description: as §1, §3

Halamphora coffeaeformis = assay: Microalgal growth assay (chlorophyll a); assay type: cell-based; settings: Halamphora coffeiformis, 120 h, 5 days incubation, 10–0.01 μg/mL tested, read-out: MIC against the growth (G) of microalgae, H. coffeaformis
Description: as §1, §3

O=C(NCCc1ccc(O)cc1)C(Cc1ccc(O)cc1)=NO [Compound 4, debromohemibastadin-1]
minimum significant dose to inhibit settlement [1]: 100 µM | inhibition of phenoloxidase, in words [2]: inhibit

COc1cc(CC(=NO)c2ccc(OC)c(OC)c2)ccc1O [Compound 14, 1-(3,4-dimethoxyphenyl)-1-hydroxyimino-2-(3’-methoxy-4’-hydroxyphenyl)-ethane]
MIC (Vibrio aestuarianus [3]): 10 µg/mL (≈ 31.5 µM) | MIC (Halomonas aquamarina [4]): 10 µg/mL (≈ 31.5 µM) | MIC (Vibrio carchariae [5]): 10 µg/mL (≈ 31.5 µM) | MIC (Vibrio harveyi [6]): 10 µg/mL (≈ 31.5 µM) | MIC / activity against the adhesion of all bacteria tested (marine bacteria): displayed inhibitory activities | MIC (Vibrio aestuarianus [7]): > 10 µg/mL | MIC (Vibrio natriegens): > 10 µg/mL | MIC (Halomonas aquamarina [8]): > 10 µg/mL | MIC (Vibrio proteolyticus): > 10 µg/mL | MIC (Shewanella putrefaciens): 10 µg/mL (≈ 31.5 µM) | MIC [9]: > 10 µg/mL | MIC (Vibrio carchariae [10]): > 10 µg/mL | MIC (Roseobacter litoralis): > 10 µg/mL | MIC (Vibrio harveyi [11]): > 10 µg/mL | IC50 ([12]; Amphibalanus improvisus, 120 h, read-out: IC50 (cyprid settlement inhibition)): 1 µg/mL (≈ 3.15 µM) | Toxicity (%) (dead cyprids) ([12]; Balanus improvisus, in vivo, 5 days, 5 μg/mL): 4.8% | MIC [13]: 10 µg/mL (≈ 31.5 µM) | MIC (Porphyridium purpureum): > 10 µg/mL | MIC (Cylindrotheca closterium): 10 µg/mL (≈ 31.5 µM) | MIC (Halamphora coffeaeformis): 10 µg/mL (≈ 31.5 µM)
